Reference: patent US6905841B2, “Enzymatic substrates for detecting Pseudomonas aeruginas” (Biomerieux S.A., priority 1999, dated 2005)
Read-outs that look alike come from different tables or passages of the source.

What was measured:
β-alanine aminopeptidase [1] = tested on: β-alanine aminopeptidase
β-alanine aminopeptidase [2] = tested on: β-alanine aminopeptidase; remark: listed apart in the source
β-alanine aminopeptidase [3] = type: cell-based; conditions: Shigella flexneri; 10 strains tested
β-alanine aminopeptidase [4] = type: cell-based; conditions: Shigella boydii; 10 strains tested
β-alanine aminopeptidase [5] = conditions: Pseudomonas stutzeri; 10 strains tested
β-alanine aminopeptidase [6] = type: cell-based, Ochrobactrum anthropi
β-alanine aminopeptidase [7] = conditions: Oligella urethralis; 10 strains tested
β-alanine aminopeptidase [8] = conditions: Shigella dysenteriae; 10 strains tested
β-alanine aminopeptidase [9] = conditions: 137 strains tested
β-alanine aminopeptidase [10] = conditions: Comamonas testoteroni; 10 strains tested
β-alanine aminopeptidase [11] = conditions: Chryseobacterium indologenes; 10 strains tested
β-alanine aminopeptidase [12] = tested on: β-alanine aminopeptidase; remark: listed apart in the source
β-alanine aminopeptidase [13] = assay: Two-substrate semi-solid medium (Trypticase Soy agar), colony color; type: cell-based; conditions: agar also contains 6-Chloro-3-indolyl-β-D-glycopyranoside and 3,5-Dihydroxy-2-naphthoic acid, 35-37° C., 18-24 hours
Description: The medium was poured out and inoculated as follows: • 10 dishes with pure cultures corresponding to five strains of Pseudomonas aeruginosa and five of Pseudomonas mendocina, and • 2 dishes with a mixture of two strains, one being of Pseudomonas aeruginosa and the other of Pseudomonas mendocina. The Petri dishes were incubated at 35-37° C. After 18-24 hours of incubation, the color of the colonies was recorded.

β-alanine aminopeptidase [14] = assay: Vitek 2 cards, broth with β-Alanyl p-nitroanilide; conditions: Chryseobacterium meningosepticum; 1 strain tested; read after 19 hours
β-alanine aminopeptidase [15] = assay: Vitek 2 cards, broth with β-Alanyl p-nitroanilide; conditions: Brevundimonas diminuta; 1 strain tested; read after 19 hours
β-alanine aminopeptidase [16] = assay: Vitek 2 cards, broth with β-Alanyl p-nitroanilide; conditions: Serratia liquefaciens; 1 strain tested; read after 19 hours
β-alanine aminopeptidase [17] = assay: Vitek 2 cards, broth with β-Alanyl p-nitroanilide; conditions: Klebsiella pneumoniae; 2 strains tested; read after 19 hours
β-alanine aminopeptidase [18] = assay: Vitek 2 cards, broth with β-Alanyl p-nitroanilide; conditions: Citrobacter koseri; 1 strain tested; read after 19 hours
β-alanine aminopeptidase [19] = assay: Vitek 2 cards, broth with β-Alanyl p-nitroanilide; conditions: Aeromonas hydrophila; 2 strains tested; read after 19 hours
β-alanine aminopeptidase [20] = assay: Vitek 2 cards, broth with β-Alanyl p-nitroanilide; conditions: Citrobacter amalonaticus; 2 strains tested; read after 19 hours
β-alanine aminopeptidase [21] = assay: Vitek 2 cards, broth with β-Alanyl p-nitroanilide; conditions: Achromobacter xylosoxydans; 2 strains tested; read after 19 hours
β-alanine aminopeptidase [22] = assay: Vitek 2 cards, broth with β-Alanyl p-nitroanilide; conditions: Ralstonia pickettii; 1 strain tested; read after 19 hours
β-alanine aminopeptidase [23] = assay: Vitek 2 cards, broth with β-Alanyl p-nitroanilide; conditions: Shewanella algae; 1 strain tested; read after 19 hours
β-alanine aminopeptidase [24] = assay: Vitek 2 cards, broth with β-Alanyl p-nitroanilide; conditions: Proteus mirabilis; 2 strains tested; read after 19 hours
β-alanine aminopeptidase [25] = assay: Vitek 2 cards, broth with β-Alanyl p-nitroanilide; conditions: Burkholderia vesicularis; 1 strain tested; read after 19 hours
β-alanine aminopeptidase [26] = assay: Vitek 2 cards, broth with β-Alanyl p-nitroanilide; conditions: Moraxella non liquefaciens; 2 strains tested; read after 19 hours
β-alanine aminopeptidase [27] = assay: Vitek 2 cards, broth with β-Alanyl p-nitroanilide; conditions: Pseudomonas stutzeri; 3 strains tested; read after 19 hours
β-alanine aminopeptidase [28] = assay: Vitek 2 cards, broth with β-Alanyl p-nitroanilide; conditions: Proteus vulgaris; 1 strain tested; read after 19 hours
β-alanine aminopeptidase [29] = assay: Vitek 2 cards, broth with β-Alanyl p-nitroanilide; conditions: Salmonella arizonae; 1 strain tested; read after 19 hours
β-alanine aminopeptidase [30] = assay: Vitek 2 cards, broth with β-Alanyl p-nitroanilide; conditions: Enterobacter aerogenes; 2 strains tested; read after 19 hours
β-alanine aminopeptidase [31] = assay: Vitek 2 cards, broth with β-Alanyl p-nitroanilide; conditions: Klebsiella oxytoca; 2 strains tested; read after 19 hours
β-alanine aminopeptidase [32] = assay: Vitek 2 cards, broth with β-Alanyl p-nitroanilide; conditions: Citrobacter freundii; 2 strains tested; read after 19 hours
β-alanine aminopeptidase [33] = assay: Vitek 2 cards, broth with β-Alanyl p-nitroanilide; conditions: Providencia stuartii; 1 strain tested; read after 19 hours
β-alanine aminopeptidase [34] = assay: Vitek 2 cards, broth with β-Alanyl p-nitroanilide; conditions: Escherichia coli; 2 strains tested; read after 19 hours
β-alanine aminopeptidase [35] = assay: Vitek 2 cards, broth with β-Alanyl p-nitroanilide; conditions: Enterobacter cloacae; 2 strains tested; read after 19 hours
β-alanine aminopeptidase [36] = assay: Vitek 2 cards, broth with β-Alanyl p-nitroanilide; conditions: Enterobacter intermedius; 1 strain tested; read after 19 hours
β-alanine aminopeptidase [37] = assay: Vitek 2 cards, broth with β-Alanyl p-nitroanilide; conditions: Serratia marcescens; 1 strain tested; read after 19 hours
β-alanine aminopeptidase [38] = assay: Vitek 2 cards, broth with β-Alanyl p-nitroanilide; conditions: Stenotrophomonas maltophilia; 2 strains tested; read after 19 hours
β-alanine aminopeptidase [39] = assay: Vitek 2 cards, broth with β-Alanyl p-nitroanilide; conditions: Pseudomonas aeruginosa; 4 strains tested; read after 19 hours
β-alanine aminopeptidase [40] = assay: Vitek 2 cards, broth with β-Alanyl p-nitroanilide; conditions: Vibrio vulnificus; 1 strain tested; read after 19 hours
β-alanine aminopeptidase [41] = assay: Vitek 2 cards, broth with β-Alanyl p-nitroanilide; conditions: Acinetobacter baumannii; 2 strains tested; read after 19 hours
β-alanine aminopeptidase [42] = assay: Vitek 2 cards, broth with β-Alanyl p-nitroanilide; conditions: Pseudomonas putida; 1 strain tested; read after 19 hours
β-alanine aminopeptidase [43] = assay: Vitek 2 cards, broth with β-Alanyl p-nitroanilide; conditions: Sphingomonas paucimobilis; 2 strains tested; read after 19 hours
β-alanine aminopeptidase [44] = assay: Vitek 2 cards, broth with β-Alanyl p-nitroanilide; type: cell-based; conditions: Myroïdes spp.; 1 strain tested; read after 19 hours
[45] = Chromobacterium violaceum, 11 strains tested
[46] = Pseudomonas mendocina, 10 strains tested
[47] = Ochrobactrum anthropi, 11 strains tested
[48] = Ralstonia pickettii, 10 strains tested

Cc1cc(=O)oc2cc(NC(=O)CCN)ccc12
percentage of positive results (β-alanine aminopeptidase [1]; Chromobacterium violaceum strains): 10%
Borderline results (β-alanine aminopeptidase [1]; [45]): 1
Number of negative results (β-alanine aminopeptidase [1]; [45]): 9
Number of positive results (β-alanine aminopeptidase [1]; [45]): 1
percentage of positive results (β-alanine aminopeptidase [2]; Pseudomonas mendocina strains): 100%
Borderline results (β-alanine aminopeptidase [2]; [46]): 0
Number of negative results (β-alanine aminopeptidase [2]; [46]): 0
Number of positive results (β-alanine aminopeptidase [2]; [46]): 10
Borderline results (β-alanine aminopeptidase [3]): 0
Number of negative results (β-alanine aminopeptidase [3]): 10
Number of positive results (β-alanine aminopeptidase [3]): 0
Borderline results (β-alanine aminopeptidase [4]): 0
Number of negative results (β-alanine aminopeptidase [4]): 10
Number of positive results (β-alanine aminopeptidase [4]): 0
Borderline results (β-alanine aminopeptidase [5]): 0
Number of negative results (β-alanine aminopeptidase [5]): 10
Number of positive results (β-alanine aminopeptidase [5]): 0
percentage of positive results (β-alanine aminopeptidase [6]; Ochrobactrum anthropi strains): 100%
Borderline results (β-alanine aminopeptidase [6]; [47]): 0
Number of negative results (β-alanine aminopeptidase [6]; [47]): 0
Number of positive results (β-alanine aminopeptidase [6]; [47]): 11
Borderline results (β-alanine aminopeptidase [7]): 0
Number of negative results (β-alanine aminopeptidase [7]): 10
Number of positive results (β-alanine aminopeptidase [7]): 0
Borderline results (β-alanine aminopeptidase [8]): 0
Number of negative results (β-alanine aminopeptidase [8]): 10
Number of positive results (β-alanine aminopeptidase [8]): 0
percentage of positive results (β-alanine aminopeptidase [9]; Pseudomonas aeruginosa strains): 97.8%
Borderline results (β-alanine aminopeptidase [9]; Pseudomonas aeruginosa): 1
Number of negative results (β-alanine aminopeptidase [9]; Pseudomonas aeruginosa): 2
Number of positive results (β-alanine aminopeptidase [9]; Pseudomonas aeruginosa): 134
Borderline results (β-alanine aminopeptidase [10]): 0
Number of negative results (β-alanine aminopeptidase [10]): 10
Number of positive results (β-alanine aminopeptidase [10]): 0
Borderline results (β-alanine aminopeptidase [11]): 0
Number of negative results (β-alanine aminopeptidase [11]): 10
Number of positive results (β-alanine aminopeptidase [11]): 0
percentage of positive results (β-alanine aminopeptidase [12]; Ralstonia pickettii strains): 20%
Borderline results (β-alanine aminopeptidase [12]; [48]): 0
Number of negative results (β-alanine aminopeptidase [12]; [48]): 8
Number of positive results (β-alanine aminopeptidase [12]; [48]): 2

CNc1ccc(N(C)C(=O)CCN)cc1 [β-Alanyl-N,N′-dimethyl-p-phenylene-diamine]
color of the colonies (β-alanine aminopeptidase [13]; Pseudomonas aeruginosa): Blue colonies with a blue halo
color of the colonies (β-alanine aminopeptidase [13]; Pseudomonas mendocina): purple colonies with a blue halo

NCCC(=O)Nc1ccc([N+](=O)[O-])cc1 [β-Alanyl-p-nitroanilide, β-Alanine p-nitroanilide]
Number of negative results (β-alanine aminopeptidase [14]): 1
Number positive results (β-alanine aminopeptidase [14]): 0
Number of negative results (β-alanine aminopeptidase [15]): 1
Number positive results (β-alanine aminopeptidase [15]): 0
Number of negative results (β-alanine aminopeptidase [16]): 0
Number positive results (β-alanine aminopeptidase [16]): 1
Number of negative results (β-alanine aminopeptidase [17]): 2
Number positive results (β-alanine aminopeptidase [17]): 0
Number of negative results (β-alanine aminopeptidase [18]): 1
Number positive results (β-alanine aminopeptidase [18]): 0
Number of negative results (β-alanine aminopeptidase [19]): 2
Number positive results (β-alanine aminopeptidase [19]): 0
Number of negative results (β-alanine aminopeptidase [20]): 2
Number positive results (β-alanine aminopeptidase [20]): 0
Number of negative results (β-alanine aminopeptidase [21]): 2
Number positive results (β-alanine aminopeptidase [21]): 0
Number of negative results (β-alanine aminopeptidase [22]): 1
Number positive results (β-alanine aminopeptidase [22]): 0
Number of negative results (β-alanine aminopeptidase [23]): 1
Number positive results (β-alanine aminopeptidase [23]): 0
Number of negative results (β-alanine aminopeptidase [24]): 2
Number positive results (β-alanine aminopeptidase [24]): 0
Number of negative results (β-alanine aminopeptidase [25]): 1
Number positive results (β-alanine aminopeptidase [25]): 0
Number of negative results (β-alanine aminopeptidase [26]): 2
Number positive results (β-alanine aminopeptidase [26]): 0
Number of negative results (β-alanine aminopeptidase [27]): 3
Number positive results (β-alanine aminopeptidase [27]): 0
Number of negative results (β-alanine aminopeptidase [28]): 1
Number positive results (β-alanine aminopeptidase [28]): 0
Number of negative results (β-alanine aminopeptidase [29]): 1
Number positive results (β-alanine aminopeptidase [29]): 0
Number of negative results (β-alanine aminopeptidase [30]): 2
Number positive results (β-alanine aminopeptidase [30]): 0
Number of negative results (β-alanine aminopeptidase [31]): 2
Number positive results (β-alanine aminopeptidase [31]): 0
Number of negative results (β-alanine aminopeptidase [32]): 2
Number positive results (β-alanine aminopeptidase [32]): 0
Number of negative results (β-alanine aminopeptidase [33]): 1
Number positive results (β-alanine aminopeptidase [33]): 0
Number of negative results (β-alanine aminopeptidase [34]): 2
Number positive results (β-alanine aminopeptidase [34]): 0
Number of negative results (β-alanine aminopeptidase [35]): 2
Number positive results (β-alanine aminopeptidase [35]): 0
Number of negative results (β-alanine aminopeptidase [36]): 1
Number positive results (β-alanine aminopeptidase [36]): 0
Number of negative results (β-alanine aminopeptidase [37]): 0
Number positive results (β-alanine aminopeptidase [37]): 1
Number of negative results (β-alanine aminopeptidase [38]): 2
Number positive results (β-alanine aminopeptidase [38]): 0
Number of negative results (β-alanine aminopeptidase [39]): 0
Number positive results (β-alanine aminopeptidase [39]): 4
Number of negative results (β-alanine aminopeptidase [40]): 1
Number positive results (β-alanine aminopeptidase [40]): 0
Number of negative results (β-alanine aminopeptidase [41]): 2
Number positive results (β-alanine aminopeptidase [41]): 0
Number of negative results (β-alanine aminopeptidase [42]): 1
Number positive results (β-alanine aminopeptidase [42]): 0
Number of negative results (β-alanine aminopeptidase [43]): 2
Number positive results (β-alanine aminopeptidase [43]): 0
Number of negative results (β-alanine aminopeptidase [44]): 1
Number positive results (β-alanine aminopeptidase [44]): 0
